From patent publication US20180303810A1, “Nimodipine Water-Soluble Derivative, And Preparation Method And Use Thereof” (Guangzhou Henovcom Bioscience Co., Ltd., priority 2015, published 2018) come the findings set out here.

Series [1] is described as follows: Solubility in water. As to conditions: pure water, thermodynamic from solid. The class given is physicochemical. Here is the method:
The compound sample prepared according to the above examples was accurately weighed in an appropriate amount, and pure water was added dropwise with a microsyringe while shaking until the solution became clear. The amounts of the sample and pure water were recorded and converted into mg/mL, as the solubility of the sample. The result was shown in the following table, and the original drug, i.e. Nimodipine, was used as a control.

A short description of series [2]: Release rate into plasma (conversion into Nimodipine). The class given is in vitro ADME. To be noted: rat, rat anticoagulated plasma, 37° C., HPLC. Here is the method: A portion of compound 6 was throughly mixed with rat anticoagulated plasma and incubated at 37° C. The drug was extracted with acetonitrile at different time points for HPLC analysis.
The compound sample prepared according to the above examples was dissolved in brine in an appropriate amount to formulate into a stock solution between 0.3 and 0.4 mg/mL. 20 μL of stock solution was added into the rat anticoagulated plasma previously incubated at 37° C. for 2 mins, which were throughly mixed, and incubated at 37° C. 100 μL of samples were taken at different time points, and an equal amount of acetonitrile was added to precipitate proteins, then centrifugated and the supernatant was sampled for HPLC analysis.

[3] abbreviates: read-out: release rate into plasma t1/2.
The mark [4] stands for this setting: read-out: half-life for converting compound into Nimodipine in blood (converted).
The mark [5] stands for this setting: water at room temperature, read-out: solubility in water.

Structures are written as SMILES. Values after ≈ are worked out from the molar mass of the structure shown. Like-named read-outs stand apart in the source and are kept apart here.

As usually defined, the solubility is how much of the substance goes into solution per volume. For the compound `COCCOC(=O)C1=C(C)NC(C)=C(C(=O)OC(C)C)C1c1cccc([N+](=O)[O-])c1` (centres unmarked) [Nimodipine], the solubility in series [1] (read-out: solubility) was found to be 0.003 mg/mL (≈ 0.00717 mM).
With `COCCOC(=O)C1=C(C)N(C(=O)OC(C)OC(=O)CCCN)C(C)=C(C(=O)OC(C)C)C1c1cccc([N+](=O)[O-])c1.Cl` (centres unmarked) [Compound 28], the half-life in series [2] (setting [3]) is below 30 min. Besides, in series [1] (read-out: solubility), the solubility is above 50 mg/mL.
For the compound `COCCOC(=O)C1=C(C)N(COP(=O)(O)O)C(C)=C(C(=O)OC(C)C)C1c1cccc([N+](=O)[O-])c1` (centres unmarked) [Compound 12], the half-life in series [2] (setting [4]) and in series [2] (setting [3]) was below 30 min in each case. Moreover, the solubility in series [1] (read-out: solubility) is above 50 mg/mL; in series [1] (setting [5]), 80 mg/mL (≈ 151 mM).
In the case of `COCCOC(=O)C1=C(C)N(C(=O)OC(C)OC(=O)/C=C/C(=O)[O-])C(C)=C(C(=O)OC(C)C)C1c1cccc([N+](=O)[O-])c1.[K+]` (centres unmarked) [Compound 24], the half-life in series [2] (setting [3]) is below 60 min. Moreover, in series [1] (read-out: solubility), the solubility is above 50 mg/mL.
For the compound `COCCOC(=O)C1=C(C)N(C(=O)OCOC(=O)/C=C/C(=O)[O-])C(C)=C(C(=O)OC(C)C)C1c1cccc([N+](=O)[O-])c1.[Na+]` (centres unmarked) [Compound 39], the half-life in series [2] (setting [3]) is below 60 min. In series [1] (read-out: solubility), the solubility was above 50 mg/mL.
Regarding `COCCOC(=O)C1=C(C)N(C(=O)OCOC(=O)[C@H](C)N)C(C)=C(C(=O)OC(C)C)C1c1cccc([N+](=O)[O-])c1.Cl` (some centres unmarked) [Compound 18], the half-life in series [2] (setting [3]) was below 30 min. Further, the solubility in series [1] (read-out: solubility) is above 50 mg/mL.
Take `COCCOC(=O)C1=C(C)N(C(=O)OCOC(=O)[C@@H](N)CCCCN)C(C)=C(C(=O)OC(C)C)C1c1cccc([N+](=O)[O-])c1` (some centres unmarked) [Compound 9]: the half-life in series [2] (setting [4]) and in series [2] (setting [3]) was around 150 min throughout. For the same compound, the solubility in series [1] (read-out: solubility) was above 50 mg/mL; in series [1] (setting [5]), 230 mg/mL (≈ 371 mM).
As for `CNCC(=O)OCOC(=O)N1C(C)=C(C(=O)OCCOC)C(c2cccc([N+](=O)[O-])c2)C(C(=O)OC(C)C)=C1C.Cl` (centres unmarked) [Compound 16], the half-life in series [2] (setting [3]) was below 30 min. In series [1] (read-out: solubility), the solubility is above 50 mg/mL.
For `COCCOC(=O)C1=C(C)N(C(=O)OCOC(=O)CCCN)C(C)=C(C(=O)OC(C)C)C1c1cccc([N+](=O)[O-])c1.Cl` (centres unmarked) [Compound 30], the half-life in series [2] (setting [3]) is below 30 min. Also, in series [1] (read-out: solubility), the solubility was above 50 mg/mL.
On the same counts, the results for `COCCOC(=O)C1=C(C)N(C(=O)OC(C)OC(=O)[C@H](C)N)C(C)=C(C(=O)OC(C)C)C1c1cccc([N+](=O)[O-])c1.Cl` (some centres unmarked) [Compound 23] are below 30 min and above 50 mg/mL.
Take `COCCOC(=O)C1=C(C)N(C(=O)OCOC(=O)/C=C/C(=O)O)C(C)=C(C(=O)OC(C)C)C1c1cccc([N+](=O)[O-])c1` (centres unmarked) [Compound 6]: the half-life in series [2] (setting [4]) and in series [2] (setting [3]) was around 90 min throughout. For the same compound, the values for the solubility in series [1] (read-out: solubility) and in series [1] (setting [5]) were above 50 mg/mL and 120 mg/mL (≈ 203 mM), respectively.
Consider `COCCOC(=O)C1=C(C)N(C(=O)OCOC(=O)CC2CCNCC2)C(C)=C(C(=O)OC(C)C)C1c1cccc([N+](=O)[O-])c1.Cl` (centres unmarked) [Compound 38], for which the half-life in series [2] (setting [3]) is below 30 min. In addition, the solubility in series [1] (read-out: solubility) was above 50 mg/mL.
On the same counts, the results for `COCCOC(=O)C1=C(C)N(C(=O)OCOC(=O)[C@@H](N)CC(C)C)C(C)=C(C(=O)OC(C)C)C1c1cccc([N+](=O)[O-])c1.Cl` (some centres unmarked) [Compound 20] are below 30 min and above 50 mg/mL.
Taken in the same sequence, the figures for `COCCOC(=O)C1=C(C)N(C(=O)OCOC(=O)C2CCNCC2)C(C)=C(C(=O)OC(C)C)C1c1cccc([N+](=O)[O-])c1.Cl` (centres unmarked) [Compound 32] were below 30 min and above 50 mg/mL.
Consider `COCCOC(=O)C1=C(C)N(C(=O)OCOP(=O)(O)O)C(C)=C(C(=O)OC(C)C)C1c1cccc([N+](=O)[O-])c1` (centres unmarked) [Compound 8], for which the figures for the half-life in series [2] (setting [4]) and in series [2] (setting [3]) were around 90 min and below 90 min, respectively. The solubility in series [1] (read-out: solubility) is above 50 mg/mL; in series [1] (setting [5]), 105 mg/mL (≈ 183 mM).
For `COCCOC(=O)C1=C(C)N(C(=O)OCOC(=O)CCN)C(C)=C(C(=O)OC(C)C)C1c1cccc([N+](=O)[O-])c1.Cl` (centres unmarked) [Compound 26], the half-life in series [2] (setting [3]) is below 30 min. Moreover, the solubility in series [1] (read-out: solubility) is above 50 mg/mL.
Turning to `COCCOC(=O)C1=C(C)N(C(=O)OCOC(=O)CC[C@H](N)C(N)=O)C(C)=C(C(=O)OC(C)C)C1c1cccc([N+](=O)[O-])c1.Cl` (some centres unmarked) [Compound 41], in series [2] (setting [3]), the half-life was below 30 min. Besides, in series [1] (read-out: solubility), the solubility is above 50 mg/mL.
